{
  "source": "patent US20220016060A1",
  "about": "“USE OF SODIUM 2-(3-PENTYLPHENYL)ACETATE IN THE TREATMENT OF ALSTRÖM SYNDROME” (LIMINAL BIOSCIENCES LIMITED, priority 2018, published 2022)",
  "key": {"ALMS patients [1]": {"system": "ALMS patients", "assay": "Cardiac MRI of myocardial fibrosis (SAX T1)", "assay_type": "in vivo, human", "conditions": "for Change from Baseline Basal SAX T1, Mean / Change from Baseline Basal SAX T1, Median / Change from Baseline Mid SAX T1, Mean / Change from Baseline Mid SAX T1, Median: 800 mg daily oral", "protocol": "(§1) The study was a Phase 2, single-centre, single-arm, open-label study of sodium 2-(3-pentylphenyl)acetate administered at a total daily oral dose of 800 mg for up to 72 weeks in subjects with ALMS was undertaken. The initial duration of the study was 24 weeks, and subjects were offered to enrol into an extension phase of 36 or 48 weeks. The schedule of study procedures for the enrolment, intervention, and assessments for participants is outlined in FIG. 1. Sodium 2-(3-pentylphenyl)acetate was formulated in soft gelatine capsules containing 200 mg of Sodium 2-(3-pentylphenyl)acetate (amorphous powder) per capsule, polyethylene glycol 400, National Formulary (NF), hydrochloric acid (for pH adjustment), and water. The effect of sodium 2-(3-pentylphenyl)acetate on heart histology in ALMS patients was also assessed by measuring short-axis (plane) longitudinal relaxation time (SAX T1). A decrease in relaxation time reflects an improvement in heart histology, such as a decrease of myocardial fibrosis, which reduces the risk of cardiac failure."}, "ALMS patients [2]": {"system": "ALMS patients", "assay": "Fasting plasma glucose (FPG)", "assay_type": "in vivo, human", "conditions": "for Change from Baseline FPG, Mean / Change from Baseline FPG, Median / FPG: 800 mg daily oral; for FPG: individual subjects", "protocol": "as §1, with “water.” for “water. The effect of sodium 2-(3-pentylphenyl)acetate on heart histology in ALMS patients was also assessed by measuring short-axis (plane) longitudinal relaxation time (SAX T1). A decrease in relaxation time reflects an improvement in heart histology, such as a decrease of myocardial fibrosis, which reduces the risk of cardiac failure.”"}},
  "note": "Several values for one entry are separate records, joined by “and”; a condition that tells them apart may be missing. Equal values may be shown once.",
  "data": [
    {"smiles": "CCCCCc1cccc(CC(=O)[O-])c1.[Na+]", "note": "[sodium 2-(3-pentylphenyl)acetate]", "values": [
      {"measurement": "Change from Baseline Basal SAX T1, Mean", "setting": "ALMS patients [1]; EP Week 36 (Week 60), N=4", "value": -84.75, "unit": "ms"},
      {"measurement": "Change from Baseline Basal SAX T1, Median", "setting": "ALMS patients [1]; EP Week 36 (Week 60), N=4", "value": -80.50, "unit": "ms"},
      {"measurement": "Change from Baseline Mid SAX T1, Mean", "setting": "ALMS patients [1]; EP Week 36 (Week 60), N=4", "value": -54.63, "unit": "ms"},
      {"measurement": "Change from Baseline Mid SAX T1, Median", "setting": "ALMS patients [1]; EP Week 36 (Week 60), N=4", "value": -51.00, "unit": "ms"},
      {"measurement": "Change from Baseline Basal SAX T1, Mean", "setting": "ALMS patients [1]; Week 24, N=9", "value": -10.67, "unit": "ms"},
      {"measurement": "Change from Baseline Basal SAX T1, Median", "setting": "ALMS patients [1]; Week 24, N=9", "value": -1.50, "unit": "ms"},
      {"measurement": "Change from Baseline Mid SAX T1, Mean", "setting": "ALMS patients [1]; Week 24, N=9", "value": -4.11, "unit": "ms"},
      {"measurement": "Change from Baseline Mid SAX T1, Median", "setting": "ALMS patients [1]; Week 24, N=9", "value": 0.00, "unit": "ms"},
      {"measurement": "mean decrease in Basal SAX T1 from baseline", "setting": "ALMS patients [1]; after 60 weeks of treatment, p=0.0274", "value": 84.75, "unit": "ms"},
      {"measurement": "mean decrease in Mid SAX T1 from baseline", "setting": "ALMS patients [1]; after 60 weeks of treatment, p=0.0349", "value": 54.63, "unit": "ms"},
      {"measurement": "Change from Baseline FPG, Mean", "setting": "ALMS patients [2]; EP Week 12 (Week 36), N=10", "value": 0.63, "unit": "mmol/L"},
      {"measurement": "Change from Baseline FPG, Median", "setting": "ALMS patients [2]; EP Week 12 (Week 36), N=10", "value": -0.10, "unit": "mmol/L"},
      {"measurement": "Change from Baseline FPG, Mean", "setting": "ALMS patients [2]; EP Week 24 (Week 48), N=10", "value": 0.70, "unit": "mmol/L"},
      {"measurement": "Change from Baseline FPG, Median", "setting": "ALMS patients [2]; EP Week 24 (Week 48), N=10", "value": -0.10, "unit": "mmol/L"},
      {"measurement": "Change from Baseline FPG, Mean", "setting": "ALMS patients [2]; EP Week 36 (Week 60), N=9", "value": 1.49, "unit": "mmol/L"},
      {"measurement": "Change from Baseline FPG, Median", "setting": "ALMS patients [2]; EP Week 36 (Week 60), N=9", "value": 0.00, "unit": "mmol/L"},
      {"measurement": "Change from Baseline FPG, Mean", "setting": "ALMS patients [2]; EP Week 48 (Week 72), N=3", "value": -0.93, "unit": "mmol/L"},
      {"measurement": "Change from Baseline FPG, Median", "setting": "ALMS patients [2]; EP Week 48 (Week 72), N=3", "value": 0.00, "unit": "mmol/L"},
      {"measurement": "increase in FPG from baseline", "setting": "ALMS patients [2]; Subject 826-001-001, 204-day break in treatment", "value": 7.4, "unit": "mmol/L"},
      {"measurement": "increase in FPG from baseline", "setting": "ALMS patients [2]; Subject 826-001-007, 32-day break in treatment", "value": 7.9, "unit": "mmol/L"},
      {"measurement": "Change from Baseline FPG, Mean", "setting": "ALMS patients [2]; Week 12, N=11", "value": 0.30, "unit": "mmol/L"},
      {"measurement": "Change from Baseline FPG, Median", "setting": "ALMS patients [2]; Week 12, N=11", "value": -0.40, "unit": "mmol/L"},
      {"measurement": "Change from Baseline FPG, Mean", "setting": "ALMS patients [2]; Week 24, N=12", "value": 0.33, "unit": "mmol/L"},
      {"measurement": "Change from Baseline FPG, Median", "setting": "ALMS patients [2]; Week 24, N=12", "value": 0.30, "unit": "mmol/L"},
      {"measurement": "FPG", "setting": "ALMS patients [2]; EP Week 12 (Week 36)", "value": "18.0 mmol/L and 4.8 mmol/L and 4.3 mmol/L and 5.2 mmol/L and 9.1 mmol/L and 4.4 mmol/L and 6.5 mmol/L and 6.6 mmol/L and 5.5 mmol/L and 19.9 mmol/L"},
      {"measurement": "FPG", "setting": "ALMS patients [2]; EP Week 24 (Week 48)", "value": "23.3 mmol/L and 3.8 mmol/L and 4.7 mmol/L and 6.9 mmol/L and 10.2 mmol/L and 4.8 mmol/L and 5.7 mmol/L and 6.2 mmol/L and 5.6 mmol/L and 13.8 mmol/L"},
      {"measurement": "FPG", "setting": "ALMS patients [2]; EP Week 36 (Week 60)", "value": "22.7 mmol/L and 5.0 mmol/L and 4.6 mmol/L and 13.8 mmol/L and 5.3 mmol/L (2×) and 4.7 mmol/L and 8.6 mmol/L and 14.9 mmol/L"},
      {"measurement": "FPG", "setting": "ALMS patients [2]; EP Week 48 (Week 72)", "value": "12.5 mmol/L and 5.5 mmol/L and 4.7 mmol/L"},
      {"measurement": "FPG", "setting": "ALMS patients [2]; Week 12", "value": "22.8 mmol/L and 4.6 mmol/L and 4.3 mmol/L and 5.3 mmol/L and 16.9 mmol/L and 7.0 mmol/L and 5.5 mmol/L and 17.6 mmol/L and 6.5 mmol/L and 5.0 mmol/L and 4.7 mmol/L"},
      {"measurement": "FPG", "setting": "ALMS patients [2]; Week 24", "value": "12.9 mmol/L and 4.9 mmol/L and 4.7 mmol/L and 5.7 mmol/L and 11.1 mmol/L and 4.8 mmol/L and 7.2 mmol/L and 7.4 mmol/L and 22.6 mmol/L and 6.5 mmol/L and 13.5 mmol/L and 6.1 mmol/L"}
    ]}
  ]
}
